Reference: ChEMBL document CHEMBL1140598, “A review of anti-infective and anti-inflammatory chalcones” (Eur J Med Chem, 2007)

Tested on: Mycobacterium tuberculosis variant bovis
Test: Antibacterial activity against Mycobacterium bovis
Format: functional

Q: With `C=CC(C)(C)c1cc(/C=C/C(=O)c2ccc(O)cc2)c(OC)cc1O` [LICOAGROCHACONE A] as the molecule, how does the MIC read?
A: ≤ 20 µg/mL
